From publication PMC6001238, “Iterative Chemical Engineering of Vancomycin Leads to Novel Vancomycin Analogs With a High in Vitro Therapeutic Index” (Frontiers in Microbiology, 2018)
≈ marks a conversion by molar mass, not a printed value. Like-named read-outs stand apart in the source and are kept apart here.

Key:
[1] = tested on: MRSA KS89; test: MIC, broth microdilution, MRSA KS89; assay type: cell-based, Staphylococcus aureus; conditions: for MIC-fold improvement vs. vancomycin: ratio of MIC of vancomycin and MIC of analogue; for MIC: read-out: MIC
Outline: (§1)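 MIC values come from broth microdilution run to CLSI susceptibility-testing standards. Ultrapure water and uninoculated broth served as controls. In one series, vancomycin at a final 10 μM was co-dosed with the analogue or comparator antibiotic.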

[2] = tested on: E. faecalis VRE 53; test: MIC, broth microdilution, vancomycin-resistant E. faecalis VRE 53 (VanA); assay type: cell-based, Enterococcus faecalis; conditions: for MIC: Enterococcus faecalis VRE 53 (vancomycin-resistant), read-out: MIC; for MIC-fold improvement vs. vancomycin: VRE 53, ratio of MIC of vancomycin and MIC of analogue
Outline: as §1

[3] = tested on: S. aureus VISA/HIP5827; test: MIC, broth microdilution, vancomycin-intermediate S. aureus VISA HIP5827; assay type: cell-based, Staphylococcus aureus; conditions: for MIC: Staphylococcus aureus VISA/HIP5827, read-out: MIC; for MIC-fold improvement vs. vancomycin: VISA/HIP5827, ratio of MIC of vancomycin and MIC of analogue
Outline: as §1

[4] = tested on: S. aureus VSSA (ATCC 6538); test: MIC, broth microdilution, vancomycin-sensitive S. aureus (VSSA/MSSA, ATCC 6538); assay type: cell-based, Staphylococcus aureus; conditions: for MIC: Staphylococcus aureus VSSA, read-out: MIC; for MIC-fold improvement vs. vancomycin: VSSA, ratio of MIC of vancomycin and MIC of analogue
Outline: as §1

[5] = tested on: E. faecalis VSE 1; test: MIC, broth microdilution, vancomycin-sensitive E. faecalis (VSE 1); assay type: cell-based, Enterococcus faecalis; conditions: for MIC: Enterococcus faecalis VSE 1 (vancomycin-sensitive), read-out: MIC; for MIC-fold improvement vs. vancomycin: VSE 1, ratio of MIC of vancomycin and MIC of analogue
Outline: as §1

[6] = tested on: MRSA KS1; test: MIC, broth microdilution, MRSA KS1; assay type: cell-based, Staphylococcus aureus; conditions: for MIC-fold improvement vs. vancomycin: MRSA KS1, ratio of MIC of vancomycin and MIC of analogue; for MIC: Staphylococcus aureus MRSA KS1, read-out: MIC
Outline: as §1

[7] = tested on: MRSA KS2; test: MIC, broth microdilution, MRSA KS2; assay type: cell-based, Staphylococcus aureus; conditions: for MIC-fold improvement vs. vancomycin: MRSA KS2, ratio of MIC of vancomycin and MIC of analogue; for MIC: Staphylococcus aureus MRSA KS2, read-out: MIC
Outline: as §1

[8] = tested on: human cervix carcinoma (HeLa) cells; test: Cytostatic activity, HeLa cell proliferation; assay type: cell-based; conditions: mean ± SD of three experiments; highest concentration tested 250 µM; 4 days; read-out: Toxicity (IC50) HeLa
Outline: (§2)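 Coulter counter cell counts after 37°C culture with compound; IC50 = concentration giving 50% growth inhibition vs negative control. Incubation: L1210 2 d, CEM 3 d, HeLa 4 d. Suspension density before mixing with an equal volume of dilution: 300,000–500,000 cells/mL.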

[9] = tested on: E. faecalis VRE 37; test: MIC, broth microdilution, vancomycin-resistant E. faecalis VRE 37 (VanA); assay type: cell-based, Enterococcus faecalis; conditions: for MIC: Enterococcus faecalis VRE 37 (vancomycin-resistant), read-out: MIC; for MIC-fold improvement vs. vancomycin: VRE 37, ratio of MIC of vancomycin and MIC of analogue
Outline: as §1

[10] = tested on: E. faecalis VRE 6; test: MIC, broth microdilution, vancomycin-resistant E. faecalis VRE 6 (VanA); assay type: cell-based, Enterococcus faecalis; conditions: for MIC: Enterococcus faecalis VRE 6 (vancomycin-resistant), read-out: MIC; for MIC-fold improvement vs. vancomycin: VRE 6, ratio of MIC of vancomycin and MIC of analogue
Outline: as §1

[11] = tested on: Murine leukemia (L1210) cells; test: Cytostatic activity, L1210 cell proliferation; assay type: cell-based; conditions: mean ± SD of three experiments; highest concentration tested 250 µM; 2 days; read-out: Toxicity (IC50) L1210
Outline: as §2

[12] = tested on: L1210, CEM and HeLa cell lines; test: Cytostatic activity, average or summary over L1210, CEM and HeLa; assay type: cell-based; conditions: average of L1210, CEM and HeLa; read-out: Toxicity (IC50) Average
Outline: as §2

[13] = tested on: S. aureus VRSA; test: MIC, broth microdilution, vancomycin-resistant S. aureus (VRSA); assay type: cell-based, Staphylococcus aureus; conditions: for MIC: Staphylococcus aureus VRSA, read-out: MIC; for MIC-fold improvement vs. vancomycin: VRSA, ratio of MIC of vancomycin and MIC of analogue
Outline: as §1

[14] = tested on: E. faecalis VRE 29; test: MIC, broth microdilution, vancomycin-resistant E. faecalis VRE 29 (VanA); assay type: cell-based, Enterococcus faecalis; conditions: for MIC: Enterococcus faecalis VRE 29 (vancomycin-resistant), read-out: MIC; for MIC-fold improvement vs. vancomycin: VRE 29, ratio of MIC of vancomycin and MIC of analogue
Outline: as §1

[15] = tested on: human T-lymphocyte (CEM) cells; test: Cytostatic activity, CEM cell proliferation; assay type: cell-based; conditions: mean ± SD of three experiments; highest concentration tested 250 µM; 3 days; read-out: Toxicity (IC50) CEM
Outline: as §2

[16] = tested on: MRSA KS6; test: MIC, broth microdilution, MRSA KS6; assay type: cell-based, Staphylococcus aureus; conditions: for MIC-fold improvement vs. vancomycin: MRSA KS6, ratio of MIC of vancomycin and MIC of analogue; for MIC: Staphylococcus aureus MRSA KS6, read-out: MIC
Outline: as §1

Row | Structure (SMILES) | MIC [2] [µM] | MIC-fold improvement vs. vancomycin [2] | MIC [3] [µM] | MIC-fold improvement vs. vancomycin [3] | MIC [4] [µM] | MIC-fold improvement vs. vancomycin [4] | MIC [5] [µM] | MIC-fold improvement vs. vancomycin [5] | MIC-fold improvement vs. vancomycin [6] | MIC [6] [µM] | MIC-fold improvement vs. vancomycin [7] | MIC [7] [µM] | IC50 [8] [µM] | MIC [9] [µM] | MIC-fold improvement vs. vancomycin [9] | MIC [10] [µM] | MIC-fold improvement vs. vancomycin [10] | IC50 [11] [µM] | IC50 [12] [µM] | MIC [13] [µM] | also measured
1 | CNC(CC(C)C)C(=O)NC1C(=O)NC(CC(N)=O)C(=O)NC2C(=O)NC3C(=O)NC(C(=O)NC(C(=O)NCC(=O)Nc4ccc5c(c4)C(=O)c4ccccc4-5)c4cc(O)cc(O)c4-c4cc3ccc4O)C(O)c3ccc(c(Cl)c3)Oc3cc2cc(c3OC2OC(CO)C(O)C(O)C2OC2CC(C)(N)C(O)C(C)O2)Oc2ccc(cc2Cl)C1O (stereo not drawn) [Vanc-89] | 12.5 (≈ 21 µg/mL) | 32 | 0.78 (≈ 1.31 µg/mL) | 8 | 0.10 (≈ 0.168 µg/mL) | 8 | ≤0.05 | ≥32 | 8 | 0.10 (≈ 0.168 µg/mL) | 8 | 0.10 (≈ 0.168 µg/mL) | 154 ± 30 | 6.25 (≈ 10.5 µg/mL) | 64 | 3.13 (≈ 5.27 µg/mL) | 64 | 71 ± 56 | 88 | 0.78 (≈ 1.31 µg/mL) | MIC-fold improvement vs. vancomycin ([1]; MRSA KS8): 4; MIC ([1]; Staphylococcus aureus MRSA KS8): 0.20 µM (≈ 0.337 µg/mL); MIC-fold improvement vs. vancomycin [13]: 128; MIC [14]: 6.25 µM (≈ 10.5 µg/mL); MIC-fold improvement vs. vancomycin [14]: 64; IC50 [15]: 38 ± 10 µM; MIC-fold improvement vs. vancomycin [16]: 4; MIC [16]: 0.20 µM (≈ 0.337 µg/mL)
2 | CNC(CC(C)C)C(=O)NC1C(=O)NC(CC(N)=O)C(=O)NC2C(=O)NC3C(=O)NC(C(=O)NC(C(=O)NCC(=O)NC4c5ccccc5-c5ccccc54)c4cc(O)cc(O)c4-c4cc3ccc4O)C(O)c3ccc(c(Cl)c3)Oc3cc2cc(c3OC2OC(CO)C(O)C(O)C2OC2CC(C)(N)C(O)C(C)O2)Oc2ccc(cc2Cl)C1O (stereo not drawn) [Vanc-90] | 12.5 (≈ 20.9 µg/mL) | 32 | 0.39 (≈ 0.651 µg/mL) | 16 | 0.10 (≈ 0.167 µg/mL) | 8 | ≤0.05 | ≥32 | 8 | 0.10 (≈ 0.167 µg/mL) | 8 | 0.10 (≈ 0.167 µg/mL) | 127 ± 27 | 3.13 (≈ 5.23 µg/mL) | 128 | 1.56 (≈ 2.6 µg/mL) | 128 | 175 ± 106 | 123 | 0.78 (≈ 1.3 µg/mL) | MIC-fold improvement vs. vancomycin ([1]; MRSA KS8): 4; MIC ([1]; Staphylococcus aureus MRSA KS8): 0.20 µM (≈ 0.334 µg/mL); MIC-fold improvement vs. vancomycin [13]: 128; MIC [14]: 3.13 µM (≈ 5.23 µg/mL); MIC-fold improvement vs. vancomycin [14]: 128; IC50 [15]: 68 ± 8 µM; MIC-fold improvement vs. vancomycin [16]: 4; MIC [16]: 0.20 µM (≈ 0.334 µg/mL)
3 | CCCCCn1cc(-c2ccc(NC(=O)CNC(=O)C3NC(=O)C4NC(=O)C(NC(=O)C5NC(=O)C(CC(N)=O)NC(=O)C(NC(=O)C(CC(C)C)NC)C(O)c6ccc(c(Cl)c6)Oc6cc5cc(c6OC5OC(CO)C(O)C(O)C5OC5CC(C)(N)C(O)C(C)O5)Oc5ccc(cc5Cl)C4O)c4ccc(O)c(c4)-c4c(O)cc(O)cc43)cc2)nn1 (stereo not drawn) [Vanc-91] | 25 (≈ 43 µg/mL) | 16 | 0.39 (≈ 0.67 µg/mL) | 16 | 0.10 (≈ 0.172 µg/mL) | 8 | ≤0.05 | ≥32 | 8 | 0.10 (≈ 0.172 µg/mL) | 8 | 0.10 (≈ 0.172 µg/mL) | 147 ± 11 | 6.25 (≈ 10.7 µg/mL) | 64 | 1.56 (≈ 2.68 µg/mL) | 128 | 154 ± 93 | 136 | 0.39 (≈ 0.67 µg/mL) | MIC-fold improvement vs. vancomycin ([1]; MRSA KS8 (head; KS89 in title)): 4; MIC ([1]; Staphylococcus aureus MRSA KS8 (head; KS89 in title)): 0.20 µM (≈ 0.344 µg/mL); MIC-fold improvement vs. vancomycin [13]: 256; MIC [14]: 6.25 µM (≈ 10.7 µg/mL); MIC-fold improvement vs. vancomycin [14]: 64; IC50 [15]: 107 ± 25 µM; MIC-fold improvement vs. vancomycin [16]: 8; MIC [16]: 0.10 µM (≈ 0.172 µg/mL)
